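Cells were grown in 96-well plates and exposed to each compound for 48 hours at five concentrations; endpoints were interpolated linearly between bracketing concentrations, or set to the highest concentration if not reached. GI50 is the concentration that inhibits growth by half. TGI: total growth inhibition.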
Key:
Assay in all cases: NCI-60 cell line screen, 48 h
[1] = test system: M14 melanoma
[2] = test system: MCF7 breast
[3] = test system: MDA-MB-435
[4] = test system: MOLT-4 leukemia
[5] = test system: OVCAR-4 ovarian
[6] = test system: OVCAR-5 ovarian
[7] = test system: SF-539 CNS
[8] = test system: SK-OV-3 ovarian
[9] = test system: SR leukemia
[10] = test system: SW-620 colon
[11] = test system: TK-10 renal
[12] = test system: UACC-62 melanoma
[13] = test system: UO-31 renal

Row | SMILES | TGI [1] [µM] | TGI [2] [µM] | TGI [3] [µM] | TGI [4] [µM] | TGI [5] [µM] | TGI [6] [µM] | TGI [7] [µM] | TGI [8] [µM] | TGI [9] [µM] | TGI [10] [µM] | TGI [11] [µM] | TGI [12] [µM] | TGI [13] [µM] | GI50 [3] [µM] | GI50 [4] [µM] | GI50 [5] [µM] | GI50 [7] [µM] | GI50 [9] [µM] | GI50 [12] [µM]
1 | CCCCCc1c(CCCC)c(=O)[nH]c2cc(CNCC(OC)OC)ccc12 | 8.1 | 27.8 | 24 | 20.6 | 30.9 | 28 | 28.4 | 32.3 | 17.3 | 16.3 | 28.7 | 12.2 | 26.4 | – | – | – | – | – | –
2 | Cc1ccc2[nH]c(=O)c(-c3cnc(=O)[nH]n3)c(O)c2c1 | > 100 | > 100 | > 100 | > 100 | > 100 | > 100 | > 100 | > 100 | > 100 | > 100 | > 100 | > 100 | > 100 | – | – | – | – | – | –
3 | CCN(CC)C(=O)CCCCCCCCC1CO1 (stereo not given) | > 100 | > 100 | > 100 | > 100 | > 100 | > 100 | > 100 | > 100 | > 100 | > 100 | > 100 | > 100 | > 100 | – | – | – | – | – | –
4 | COc1cc2c(cc1OCCCC(=O)Nc1cc(C(=O)Nc3cc(C(=O)NCCCN(C)C)n(C)n3)n(C)n1)N=CC1CCCN1C2=O (stereo not given) | 33.8 | 29.5 | 39 | 18.9 | 26.5 | 37.7 | 44.1 | > 100 | 26.7 | 29.2 | 35.7 | 57.3 | 30.4 | – | – | – | – | – | –
5 | COc1ccc2c(c1)CC[C@@H]1[C@@H]2CC[C@]2(C)/C(=N/OCCN3CCCCC3)CC[C@@H]12 | 5.88 | 21.8 | 16.9 | 8.37 | 27.2 | 16.6 | 7.64 | 23.7 | 6.29 | 20.3 | 14.4 | 3.68 | 10.7 | – | – | – | – | – | –
6 | NS(=O)(=O)c1ccc(/C=C/c2cccc(O)c2)cc1 | > 100 | > 100 | > 100 | > 100 | > 100 | > 100 | > 100 | > 100 | > 100 | > 100 | 93.7 | 50.4 | 64.2 | 25.8 | 20 | 27.8 | 36.7 | 17.8 | 18.6
7 | O=C1CC(O)c2c(Cl)sc(Cl)c21 (stereo not given) | 32.7 | 30.5 | > 47.7 | > 20.9 | 54.3 | 33 | 22.9 | > 100 | 20.7 | 6.5 | 30.1 | 31.5 | 22.8 | – | – | – | – | – | –
8 | CC(=O)Oc1ccc2c(c1)CC[C@@H]1C2[C@@H](O[N+](=O)[O-])C[C@@]2(C)C1CC[C@@H]2O (stereo not given in full) | > 100 | > 90.3 | 56.2 | > 85.8 | > 100 | > 71.8 | 72.6 | > 100 | > 88.1 | > 100 | > 100 | > 100 | > 100 | – | – | – | – | – | –
9 | COC(=O)C(Cc1ccccc1)NC(=O)CNC(=O)CSc1nnc(COc2ccc(Cl)cc2)n1-c1ccccc1 (stereo not given) | 31.7 | 35.5 | 35 | > 24.2 | 21.7 | 33.6 | 34.3 | 28.6 | > 20.4 | 47 | 27.7 | 28.6 | 3.28 | – | – | – | – | – | –
10 | C/C(=N/O)c1cccc(Nc2nc3ccccc3c3[nH]c4ccccc4c23)c1 | 6.3 | 5.63 | 7.52 | 3.55 | 6.96 | 9.27 | 23.9 | 22.1 | 3.85 | 19.4 | 15.6 | 4.65 | 12 | – | – | – | – | – | –
11 | COc1cccc(C2c3cc4c(cc3OC(N3CCOCC3)C2C)OCO4)c1O (stereo not given) | 25 | > 44.2 | 6.57 | 42.2 | > 100 | 60 | 9.66 | 75.6 | 30.2 | > 75.2 | 83.6 | 40.2 | 54.3 | – | – | – | – | – | –
12 | NC1CCC(c2cc3ccccc3s2)(N2CCCCC2)CC1 (stereo not given) | 2.88 | 3.05 | 2.63 | 3.25 | 15.2 | 6.23 | 4.59 | 22.6 | 3.38 | 3.2 | 19 | 6.25 | 5.94 | – | – | – | – | – | –
13 | CN(C)CCOc1ccc(-c2c(Oc3ccc(Cl)cc3)c(=O)oc3ccccc23)cc1 | 3.12 | > 28.3 | > 31.2 | > 41.8 | 28.1 | 35.7 | > 62.5 | 65.7 | > 30.6 | > 62 | 29.9 | 32.1 | > 28.9 | – | – | – | – | – | –
14 | COc1cccc(-c2cc(=O)c3cc(C)cnc3[nH]2)c1 | > 69.6 | > 100 | 0.0686 | > 32.4 | > 100 | > 100 | > 100 | > 100 | 95.7 | > 100 | > 100 | > 100 | 3.59 | – | – | – | – | – | –
15 | COc1ccc(CN=CN/C(C#N)=C(\N)C#N)cc1OC | > 100 | > 100 | > 100 | > 100 | > 100 | > 100 | > 100 | > 100 | > 100 | > 100 | > 100 | > 100 | > 100 | – | – | – | – | – | –
16 | CN(C)c1ccc(/C=C2\N=C(c3ccccc3)N(c3nc4c(Cl)cc(Cl)cc4s3)C2=O)cc1 | > 100 | > 100 | 67.6 | > 100 | > 100 | > 100 | > 100 | > 100 | > 100 | > 100 | > 100 | > 100 | > 100 | – | – | – | – | – | –
17 | Cc1nn(-c2ccccc2)c(C)c1/C=N/NC(=O)c1sc(=S)n(-c2ccccc2)c1N | > 100 | > 100 | > 100 | > 100 | 8.74 | > 100 | 25.6 | > 100 | > 100 | > 100 | 7.19 | > 100 | > 100 | – | – | – | – | – | –
18 | COC1CCC(OC2CC(C3(C)CCC4(CC(O)C(C)C(C(C)/C=C(\C)C(=O)C(C)CC(C)C(=O)O)O4)O3)OC3(OC(C4OC(O)(CO)C(C)CC4C)CC3C)C2C)OC1C (stereo not given) | 0.287 | 1.91 | 0.564 | 0.339 | 10.3 | 13.1 | 1.17 | 10.9 | < 0.0134 | 1.88 | 5.79 | 0.298 | 5.91 | – | – | – | – | – | –
19 | COC(=O)/C=C1/OC(c2ccccc2)=C(Cl)C1=O | 35.2 | 37.5 | 39.5 | 18.1 | 39 | 35.6 | 47.1 | > 100 | 17.9 | 41.6 | 51.6 | 38.8 | 49.2 | – | – | – | – | – | –
20 | COc1cc(C2c3cc4c(cc3OC(N3CCOCC3)C2C)OCO4)cc(OC)c1O (stereo not given) | > 100 | > 100 | 6.27 | > 100 | > 100 | > 100 | 22 | > 50.6 | > 35.1 | > 59.6 | 70.6 | > 100 | > 66.4 | – | – | – | – | – | –
21 | O=C1CC(c2cccc(Cl)c2)n2cccc21 (stereo not given) | > 100 | > 100 | > 100 | > 100 | > 100 | > 100 | > 100 | > 100 | > 100 | > 100 | > 100 | > 100 | > 100 | – | – | – | – | – | –
22 | COc1cc2[nH]c(-c3ccccc3)cc(=O)c2cc1OC | > 76.2 | > 28.8 | 12.2 | > 100 | > 100 | > 100 | 60.5 | > 100 | > 48.3 | > 100 | 98.7 | > 89 | > 100 | – | – | – | – | – | –
23 | CC1=Nn2c(nc3sc4c(c3c2=O)CCCC4)SC1 | > 100 | > 100 | > 100 | > 94.6 | > 100 | > 100 | > 100 | > 100 | > 100 | > 100 | > 100 | > 100 | > 100 | – | – | – | – | – | –

From PubChem BioAssay (NCI)
